From paper PMC8474116, “Discovery of Novel Acetamide-Based Heme Oxygenase-1 Inhibitors with Potent In Vitro Antiproliferative Activity” (Journal of Medicinal Chemistry, 2021)

Columns and labels:
HO-1 = HO-1 immunolocalization (immunofluorescence) in U87MG; assay type: cell-based, human; conditions: 10 μM, 48 h
Description: To determine the cellular distribution of heme oxygenase-1 in tumor cells, immunofluorescence analysis was performed as previously described.[62] Tumor cell lines were cultured on glass coverslips fixed in 4% paraformaldehyde in PBS (15′ at room temperature), permeabilized with 0.2% of Triton X100, blocked with 0.1% of BSA in PBS, and then probed with rabbit HO-1 antibody. […] DNA was counterstained stained with DAPI (#940110, Vector Laboratories). After a series of PBS and double-distilled water washes, the fixed cells were cover-slipped with the Vectashield mounting medium (Vector Laboratories, Inc., Burlingame, CA). Localization of the antibody was performed by Zeiss fluorescent microscopy.

VEGF = VEGF intracellular expression by Western blot, U87MG; assay type: cell-based, human; conditions: 10 μM, 48 h
Description: Proteins were extracted from total cell lysate, as previously described.[61] Briefly, cell lines were added to a buffer containing 20 mM Tris (pH 7.4), 2 mM EDTA, 0.5 mM EGTA, 50 mM mercaptoethanol, and […] sucrose supplemented with phosphatase and protease inhibitor cocktails (Roche Diagnostics, Monza, Italy). Subsequently, protein samples were sonicated twice for 20′ by using an ultrasonic probe, followed by centrifugation at 10 000g for 10 min at 4 °C. Sample proteins (30 μg) were diluted in 4X NuPage LDS sample buffer (Invitrogen, NP0007), heated at 80 °C for 5 min, and then separated on a Biorad Criterion XT 4–15% Bis–Tris gel (BIO-RAD) by electrophoresis and then transferred to a PVDF membrane (BIO-RAD). Blots were blocked using the Odyssey Blocking Buffer (LI-COR Biosciences) and probed with appropriate antibodies: HO-1 antibody (GeneTex GTX101147), goat polyclonal anti-VEGF (cat. no. sc-1836, Santa Cruz Biotechnology), and rabbit polyclonal anti-β-tubulin (cat n.sc-9104, Santa Cruz Biotechnology) and β-actin antibody (GeneTex GTX109639).
The secondary antibodies goat antirabbit (Odyssey, #926-32211; Odyssey #926-68021) and donkey antigoat IRDye 800CW (cat #926-32214; Li-Cor Biosciences) were used at 1:7000. Blots were scanned, and densitometric analysis was performed with the Odyssey Infrared Imaging System. Values were normalized to β-actin and to β-tubulin.

VEGF-A = VEGF-A release in conditioned media, ELISA, U87MG; assay type: cell-based, human; conditions: 10 μM, 48 h
Description: VEGF-A release in conditioned media was measured using the ELISA sandwich enzymatic method with specific anti-VEGF-A (cat. No. ELH-VEGF) antibodies coated on a 96-well plate, according to the manufacturer’s guidelines. Briefly, confluent U87MG cells grown in media supplemented with 1% FBS were treated for 48 h with 10 μM of 7l. Standards and supernatants from samples were pipetted into the wells containing the immobilized VEGF antibody. The wells were then washed before adding a biotinylated antihuman VEGF antibody. Following incubation, the unbound biotinylated antibody was washed off, and HRP-conjugated streptavidin was pipetted in each well. After an additional wash step, a TMB substrate solution was added to each well, resulting in blue coloration proportional to the amount of bound VEGF. Finally, the stop solution was added, and the colorimetric intensity of the blue substrate now turned yellow was measured at 450 nm.

H5V cells = test: Tube formation assay, H5V endothelial cells with U87MG conditioned medium; assay type: cell-based, murine; conditions: H5V cells with CM2, medium from U87MG cultured with 10 μM, 48 h
Description: Subconfluent U87MG cell cultures were placed in media supplemented with 1% FBS (representing the conditioned medium 1 (CM1) or control) or containing 10 μM of 7l molecule (representing the conditioned medium 2 (CM2)) and incubated at 37 °C for 48 h. Subsequently, the CMs were collected and centrifuged at 2000 rpm for 5 min, and the supernatants were frozen at −80 °C until use. GeltrexTM reduced growth factor basement membrane matrix (Invitrogen) was thawed at 4 °C overnight before use. GeltrexTM matrix was added to a 24-well plate (95 μL/well) and then incubated at 37 °C for 30 min to allow polymerization. Murine microvascular endothelial cells (H5V) were starved overnight in the growth medium, and then the cells were seeded onto the layer of GeltrexTM matrix and cultured with 200 μL of CM1 and CM2 at 37 °C for 48 h. Three randomly selected fields of view were captured with a digital camera (Canon) connected to an inverted microscope (Axio Observer A1; Carl Zeiss, Göttingen, Germany). Tube numbers per field were calculated as the percentage of control.

A549 cells = test: MTT cell viability assay, A549; assay type: cell-based, human; conditions: 48 h, 10 μM
Description: Experiments were performed on human GBM cell lines U87MG (ATCCC number #HTB-14) and A172 (ATCCC #CRL-1620) on DU145 (ATCC HTB-81) and human lung adenocarcinoma A549 (ATCC CCL-185-LUC2). All cell lines were obtained from the American Type Culture Collection (ATCC, Rockville, MD). Cells were grown in Dulbecco’s modified Eagle’s medium (DMEM) supplemented with 10% of heat-inactivated fetal bovine serum (FBS), 100 U/mL of penicillin, and 100 μg/mL of streptomycin (Sigma-Aldrich, Steinheim, Germany). Cells were incubated at 37 °C in a humidified atmosphere with 5% CO2.
The effect of selected compounds 7i and 7l–p on cell viability was assessed by performing an MTT assay. Cells were seeded into 96-well plates at a density of 7 × 10^3 cells/well in 100 μL of culture medium. After 24 h, cells were treated with selected compounds at three different concentrations (1 μM, 10 μM, and 50 μM) for 48 h. Following treatments, 0.5 mg/mL of 3-[4,5-dimethylthiazol-2-yl]-2,5-diphenyltetrazolium bromide (MTT) (Sigma-Aldrich) was added to each well and incubated for 4 h at 37 °C. Finally, dimethyl-sulfoxide (DMSO) was used to dissolve formazan salts, and absorbance was measured at 570 nm in a microplate reader (Biotek Synergy-HT). Eight replicate wells were used for each group.

SMILES | HO-1 immunoreactivity (in words) (HO-1) | VEGF intracellular expression (in words) (VEGF) | VEGF release in the culture medium (in words) (VEGF-A) | number of tube-like structures (in words) (H5V cells) | cell viability reduction (in words) (A549 cells)
CN(C(=O)Cn1ccnc1)C(c1ccccc1)c1ccc(Cl)cc1 (centres unmarked) [7l, N-((4-Chlorophenyl)(phenyl)methyl)-2-(1H-imidazol-1-yl)-N-methylacetamide] | reduced the immunoreactivity of HO-1 | significant reduction | significant reduction | significantly decreased | –
CN(C(=O)Cn1ccnc1)C(c1ccccc1)c1ccc(OCc2ccccc2)cc1 (centres unmarked) [7o, N-((4-(Benzyloxy)phenyl)(phenyl)methyl)-2-(1H-imidazol-1-yl)-N-methylacetamide] | – | – | – | – | weak effect
